Results as given in patent publication US20120040951A1, “HETEROARYL COMPOUNDS USEFUL AS RAF KINASE INHIBITORS” (priority 2008, published 2012).

system: phospho-ERK in melanoma derived WM-266-4 cells; experiment: Mechanistic cellular assay for Raf kinase activity (phospho-ERK, Bio-Plex); format: cell-based; conditions: Homo sapiens, treated 1-2 hr at 37° C., serum free medium, read-out: pERK EC50
Description: (2) Mechanistic Cellular Assay for Raf Kinase Activity
The following method was utilized for quantifying the amount of phospho-ERK in melanoma derived WM-266-4 cells (one allele each of wild type BRaf and mutant BRaf (V600D) as an indicator of Raf kinase activity in cells treated with various kinase inhibitors.
(1) Detached adhered WM-266-4 cells from flask using 0.25% Trypsin. Resuspended cells in growth media (90% RPMI 1640, 10% FBS) and determine cell density.
(2) Seeded cells @ 10,000 cells/well in 96-well (flat bottom) tissue culture plates (36,000 cells/cm^2). Added growth media to a final volume of 200 uL/well and incubated overnight at 37° C.
(1) Prepared compound dilutions (1000× in DMSO) as follows. Starting with a stock of 5 mM compound in DMSO, diluted serially 3-fold in DMSO for a total of eight concentrations (5 mM, 1.67 mM, 0.556 mM, 0.185 mM, 0.062 mM, 0.021 mM, 0.007 mM, 0.002 mM).
(2) Prepared compound-containing media by adding 1 mL treatment media (100% RPMI 1640 without FBS) to 1 μL of compound dilution (from step 3).
(3) Removed plates (from step 2) from incubator. Aspirated media and replace with 150 μL compound-containing media. Incubate for 1-2 hr at 37° C.
(4) Removed plates (from step 5) from incubator and treated each as follows: aspirated compound-containing media and replaced with 300 μL ice-cold 1×PBS, aspirated PBS and replaced with 45 μL lysis buffer (Biorad Bio-Plex lysis buffer containing 0.4% v/v lysis buff. Factor 1, 0.2% v/v lysis buff. Factor 2, and PMSF to 2 mM final concentration), and then placed plate on ice until all plates were treated.
(5) After all plates were processed (step 6), placed plates on an orbital shaker and shook at room temperature for at least 15 min.
(6) Finally, removed plates from shaker, and transfered 40 μL/well of lysate from each to new corresponding 96-well V-bottom plates. At this point, samples may be frozen and stored @−80 C.°.
(1) Thaw (if necessary) plates (from step 8) and added 40 μL of Phospho-Protein Assay Buffer to each 40 μL lysate for a 1:1 dilution.
(2) Prepared phospho-ERK1,2 Bioplex beads by diluting 1:50 with Bioplex Wash Buffer (mixing 49 μL Wash Buffer with 1 μL of phospho-ERK1,2 Bioplex beads for each sample to be analyzed). Protected from light by wrapping tube in aluminum foil and kept at room temperature.
(3) Prepared Filter Plate by adding 100 μL/well Bioplex Wash Buffer and removed by vacuum filtration.
(4) Add 50 μL of bead solution (from step 10) to each well of a prepared Filter Plate (from step 11) and vacuum filter. Wash/filter 2× with 100 μL/well Wash Buffer.
(5) Added 50 μL of each lysate to appropriate well of the Filter Plate (from step 12). For this and all subsequent plate incubation steps, placed plate on an inverted plate cover (reduces background), and wrapped in aluminum foil (to protect from light). Shook overnight at room temperature. Included positive (control lysate) and negative (lysis buffer) controls.
(1) Prepared detection antibody (phospho-ERK1,2 Ab) by diluting 1:25 with Detection Antibody Dilution Buffer Buffer (mixing 24 μL Detection Antibody Dilution Buffer with 1 μL of phospho-ERK1,2 Ab for each sample to be analyzed).
(2) Removed plate (from step 13) from shaker and vacuum filter. Washed/filter plate 3× with 100 μL/well Wash Buffer. Added 25 μL of diluted antibody to each well. Incubated on shaker at RT for 30-45 min.
(3) Prepared streptavidin-PE by diluting 1:100 with Wash Buffer (mixing 49.5 μL Wash Buffer with 0.5 μL of 100× streptavidin-PE for each sample to be analyzed). Protected from light.
(4) Removed plate (from step 15) from shaker and vacuum filter. Washed/filter plate 3× with 100 μL/well Wash Buffer. Add 50 μL of diluted streptavidin-PE solution (from step 16) to each sample well. Incubated on shaker for 10-20 min.
(5) Removed plate from shaker and vacuum filter. Wash/filter plate 3× with 100 μL/well Bead Resuspension Buffer. After last wash resuspended beads in 125 μL Bead Resuspension Buffer. […]

SMILES | EC50 [µM]
C[C@@H](NC(=O)c1cnc(N)n1C1CC1)c1ncc(C(=O)Nc2cc(C(F)(F)F)c(Cl)cn2)s1 [Example 154] | 0.1 to 1
CNc1ncc(C(=O)N[C@H](C)c2ncc(C(=O)Nc3cc(C(F)(F)F)c(Cl)cn3)s2)n1C [Example 160] | 1 to 10
C[C@@H](NC(=O)c1cncn1C)c1ncc(C(=O)Nc2cc(C(F)(F)F)c(Cl)cn2)s1 [Example 141] | 0.1 to 1
C[C@H](NC(=O)c1cc2c(cn1)ncn2C)c1cnc(Nc2cnc(C(C)(C)C)nc2)s1 [Example 242] | 1 to 10
Cc1ncc(C(=O)N[C@H](C)c2ncc(C(=O)Nc3cc(C(F)(F)F)c(Cl)cn3)s2)n1C(C)C [Example 158] | ≤ 0.1
C[C@@H](NC(=O)c1ccc2c(c1)NC(=O)CO2)c1ncc(C(=O)Nc2cc(C(F)(F)F)c(Cl)cn2)s1 [Example 66] | ≤ 0.1
C[C@@H](NC(=O)c1cnc2n1CCN2C)c1ncc(C(=O)Nc2cc(C(F)(F)F)c(Cl)cn2)s1 [Example 172] | 0.1 to 1
CC(NC(=O)c1cnn2c1CCCC2)c1cnc(Nc2ccc(C(F)(F)F)cc2)s1 (centres unmarked) [Example 83] | ≤ 0.1
CC(NC(=O)c1cnn2cc(-c3ccc(F)nc3)ccc12)c1ncc(C(=O)Nc2cc(C(F)(F)F)c(Cl)cn2)s1 (centres unmarked) [Example 322] | 0.1 to 1
CC(NC(=O)c1cnc2n1CCNC2)c1cnc(Nc2ccc(C(F)(F)F)cc2)s1 (centres unmarked) [Example 314] | 0.1 to 1
C[C@@H](NC(=O)c1cnc2n1CCCCN2)c1ncc(C(=O)Nc2cc(C(F)(F)F)c(Cl)cn2)s1 [Example 171] | ≤ 0.1
C[C@@H](NC(=O)c1cnc2n1CCCN2)c1ncc(C(=O)Nc2cc(C(F)(F)F)c(Cl)cn2)s1 [Example 166] | ≤ 0.1
CC(NC(=O)c1cc2c(cn1)ncn2C)c1cnc(Nc2cccc(C(C)(C)C#N)c2)s1 (centres unmarked) [Example 252] | 0.1 to 1
CC(NC(=O)c1cn2c(Br)cnc2cn1)c1cnc(Nc2ccc(C(F)(F)F)cc2)s1 (centres unmarked) [Example 297] | ≤ 0.1
C[C@@H](NC(=O)c1cnc2n1CCC(=O)N2)c1ncc(C(=O)Nc2cc(C(F)(F)F)c(Cl)cn2)s1 [Example 173] | ≤ 0.1
C[C@@H](NC(=O)c1cnn(-c2ccncc2)c1)c1ncc(C(=O)Nc2cc(C(F)(F)F)c(Cl)cn2)s1 [Example 120] | 0.1 to 1

SMILES | EC50 [µM]
CCn1c(C(=O)NC(C)c2ncc(C(=O)Nc3cc(C(F)(F)F)c(Cl)cn3)s2)cnc1C (centres unmarked) [Example 164] | 0.1 to 1
CNc1ncc(C(=O)N[C@H](C)c2ncc(C(=O)Nc3cc(C(F)(F)F)c(Cl)cn3)s2)s1 [Example 104] | 0.1 to 1
C[C@@H](NC(=O)c1cnc(N)n1C)c1ncc(C(=O)Nc2cc(C(F)(F)F)c(Cl)cn2)s1 [Example 147] | ≤ 0.1
C[C@@H](NC(=O)c1c[nH]cn1)c1ncc(C(=O)Nc2cc(C(F)(F)F)c(Cl)cn2)s1 [Example 142] | 1 to 10
C[C@@H](NC(=O)c1cnc(NCCN2CCCC2)s1)c1ncc(C(=O)Nc2cc(C(F)(F)F)c(Cl)cn2)s1 [Example 105] | 0.1 to 1
CC(NC(=O)c1cc2c(cn1)ncn2CCNC(=O)OC(C)(C)C)c1cnc(Nc2ccc(C(F)(F)F)cc2)s1 (centres unmarked) [Example 21] | 0.1 to 1
CC(NC(=O)c1cc2c(cn1)ncn2C)c1cnc(Nc2cccc(C(C)(C)C)c2)s1 (centres unmarked) [Example 257] | ≤ 0.1
C[C@@H](NC(=O)c1cnc2ccccn12)c1ncc(C(=O)Nc2cc(C(F)(F)F)c(Cl)cn2)s1 [Example 135] | ≤ 0.1
CC(NC(=O)c1cnn2cc(Br)ccc12)c1ncc(C(=O)Nc2cc(C(F)(F)F)c(Cl)cn2)s1 (centres unmarked) [Example 319] | 0.1 to 1
C[C@@H](NC(=O)c1ccc2nc(N)sc2c1)c1ncc(C(=O)Nc2cc(C(F)(F)F)c(Cl)cn2)s1 [Example 59] | ≤ 0.1
Cc1c(C(=O)N[C@H](C)c2ncc(C(=O)Nc3cc(C(F)(F)F)c(Cl)cn3)s2)cnn1C [Example 115] | ≤ 0.1
CC(NC(=O)c1cccc(CN2CCOCC2)c1)c1ncc(C(=O)Nc2cc(C(F)(F)F)c(Cl)cn2)s1 (centres unmarked) [Example 46] | 1 to 10
CC(NC(=O)c1cccc(N2CCOCC2)c1)c1ncc(C(=O)Nc2cc(C(F)(F)F)c(Cl)cn2)s1 (centres unmarked) [Example 45] | 1 to 10
CC(=N)Nc1nc2cnc(C(=O)NC(C)c3cnc(Nc4ccc(C(F)(F)F)cc4)s3)cc2n1C (centres unmarked) [Example 200] | 1 to 10
Cc1nc(-c2cnccn2)sc1C(=O)N[C@H](C)c1ncc(C(=O)Nc2cc(C(F)(F)F)c(Cl)cn2)s1 [Example 100] | 1 to 10

Results, then the compound that gave them:

EC50 [µM] | SMILES
0.1 to 1 | CC(NC(=O)c1cc2c(cn1)ncn2C)c1cnc(Nc2ccc(Cl)cc2)s1 (centres unmarked) [Example 249]
1 to 10 | C[C@H](NC(=O)c1cc2c(cn1)ncn2C)c1cnc(Nc2ccc(C(F)(F)F)cc2)cn1 (single isomer, unassigned) [Example 36]
0.1 to 1 | CC(C)Cn1cnc2cnc(C(=O)NC(C)c3cnc(Nc4ccc(C(F)(F)F)cc4)cn3)cc21 (centres unmarked) [Example 79]
0.1 to 1 | CC(NC(=O)c1cc2cn(C)nc2cn1)c1cnc(Nc2ccc(C(F)(F)F)cc2)cn1 (centres unmarked) [Example 206]
0.1 to 1 | Cc1ncc(C(=O)N[C@H](C)c2ncc(C(=O)Nc3cc(C(F)(F)F)c(Cl)cn3)s2)n1-c1ccccn1 [Example 161]
0.1 to 1 | CCN1CC(n2cnc3cnc(C(=O)NC(C)c4cnc(Nc5cnc(C(C)(C)C)nc5)s4)cc32)C1 (centres unmarked) [Example 288]
1 to 10 | CC(NC(=O)c1cc2cnn(C)c2cn1)c1cnc(Nc2ccc(C(F)(F)F)cc2)s1 (centres unmarked) [Example 204]
0.1 to 1 | CC(NC(=O)c1cc2c(cn1)ncn2C)c1cnc(Nc2ccc(C(C)(C)C(F)(F)F)cc2)s1 (centres unmarked) [Example 272]
0.1 to 1 | CC(NC(=O)c1cc2c(cn1)ncn2C)c1cnc(Nc2ccc(C3(C)CC3)cc2)s1 (centres unmarked) [Example 277]
0.1 to 1 | Cc1nc2cnc(C(=O)NC(C)c3cnc(Nc4ccc(C(F)(F)F)cc4)s3)cc2n1C (centres unmarked) [Example 10]
≤ 0.1 | C[C@@H](NC(=O)c1cc2cn(C)nc2cn1)c1cnc(Nc2ccc(C(F)(F)F)cc2)s1 [Example 205]
≤ 0.1 | CCn1cnc2cnc(C(=O)N[C@H](C)c3cnc(Nc4ccc(C(F)(F)F)cc4)s3)cc21 [Example 20]
0.1 to 1 | Cc1nc(C(F)(F)F)ccc1Nc1ncc(C(C)NC(=O)c2cc3c(cn2)ncn3C)s1 (centres unmarked) [Example 259]
≤ 0.1 | CC(NC(=O)c1cc2c(cn1)ncn2CCN1CCOCC1)c1cnc(Nc2ccc(C(F)(F)F)cc2)s1 (centres unmarked) [Example 8]
1 to 10 | CC(NC(=O)c1ncc2ncn(C)c2n1)c1cnc(Nc2ccc(C(F)(F)F)cc2)cn1 (centres unmarked) [Example 191]
≤ 0.1 | C[C@@H](NC(=O)c1cc2c(cn1)ncn2C)c1cnc(Nc2ccc(Cl)c(C(F)(F)F)c2)cn1 (single isomer, unassigned) [Example 236]
0.1 to 1 | CC(NC(=O)c1cc2c(cn1)ncn2CC(C)(C)C)c1cnc(Nc2ccc(C(F)(F)F)cc2)s1 (centres unmarked) [Example 16]
0.1 to 1 | CC(NC(=O)c1cc2c(cn1)ncn2C)c1cnc(Nc2cnc(C(C)(C)C)nc2)cn1 (centres unmarked) [Example 256]
≤ 0.1 | Cc1ncc(C(=O)N[C@H](C)c2ncc(C(=O)Nc3cc(C(F)(F)F)c(Cl)cn3)s2)n1-c1cccnc1 [Example 162]
1 to 10 | CC(NC(=O)c1cc2c(cn1)ncn2C)c1cnc(Nc2cc(CN(C)C)cc(C(F)(F)F)c2)s1 (centres unmarked) [Example 357]
0.1 to 1 | CCN1CC(n2cnc3cnc(C(=O)NC(C)c4cnc(Nc5ccc(Cl)c(C(F)(F)F)c5)cn4)cc32)C1 (centres unmarked) [Example 235]
≤ 0.1 | C[C@@H](NC(=O)c1cc2nc[nH]c2cn1)c1ncc(C(=O)Nc2cc(C(F)(F)F)c(Cl)cn2)s1 [Example 39]
